Reference: patent US6355658B1, “Coumarin derivatives, methods of preparation and application as medicines” (Centre National de la Recherche Scientifique, priority 1997, dated 2002)

melting point	SMILES
223 to 225 °C	O=C(Oc1cc([N+](=O)[O-])ccc1[N+](=O)[O-])c1cc2ccccc2oc1=O
225 to 229 °C	Cc1ccc2oc(=O)c(C(=O)Oc3cc([N+](=O)[O-])ccc3[N+](=O)[O-])cc2c1
153 to 157 °C	O=C(Oc1cc([N+](=O)[O-])ccc1[N+](=O)[O-])c1cc2cc(CCl)ccc2oc1=O
162 to 164 °C	CC(=O)OCc1ccc2oc(=O)c(C(=O)Oc3cc([N+](=O)[O-])ccc3[N+](=O)[O-])cc2c1
270 °C (dec.)	O=C(Nc1cccnc1)c1cc2cc(CCl)ccc2oc1=O [II1, N-(3-pyridyl)-6-chloromethyl-2-oxo-2H-1-benzopyran-3-carboxamide]
211 °C (dec.)	O=C(Nc1cccnc1Cl)c1cc2cc(CCl)ccc2oc1=O [II2, N-(2-chloro-3-pyridyl)-6-chloromethyl-2-oxo-2H-1-benzopyran-3-carboxamide]
225 °C (dec.)	COc1ccc(NC(=O)c2cc3cc(CCl)ccc3oc2=O)cn1 [II3, N-(6-methoxy-3-pyridyl)-6-chloromethyl-2-oxo-2H-1-benzopyran-3-carboxamide]
252 to 254 °C	O=C(NSc1ncccc1[N+](=O)[O-])c1cc2cc(CCl)ccc2oc1=O [IV1, N-[(3-nitro-2-pyridyl)sulfanyl]-6-chloromethyl-2-oxo-2H-1-benzopyran-3-carboxamide]
173 to 175 °C	O=C(Oc1cc(F)ccc1Br)c1cc2ccccc2oc1=O [Ia6, 2-bromo-5-fluorophenyl 2-oxo-2H-1-benzopyran-3-carboxylate]
219 to 223 °C	O=C(Oc1cc(F)ccc1[N+](=O)[O-])c1cc2ccccc2oc1=O [Ia7, 5-fluoro-2-nitrophenyl 2-oxo-2H-1-benzopyran-3-carboxylate]
190 to 193 °C	O=C(Oc1cccc2cnccc12)c1cc2ccccc2oc1=O [Ia9, 5-isoquinolyl 2-oxo-2H-1-benzopyran-3-carboxylate]
160 to 163 °C	O=C(Oc1cc2ccccc2cn1)c1cc2ccccc2oc1=O [Ia10, 3-isoquinolyl 2-oxo-2H-1-benzopyran-3-carboxylate]
155 to 159 °C	Cc1ccc2oc(=O)c(C(=O)Oc3cc(F)ccc3F)cc2c1 [Ib4, 2,5-difluorophenyl 6-methyl-2-oxo-2H-1-benzopyran-3-carboxylate]
187 to 190 °C	Cc1ccc2oc(=O)c(C(=O)Oc3cc(F)ccc3Br)cc2c1 [Ib5, 2-bromo-5-fluorophenyl 6-methyl-2-oxo-2H-1-benzopyran-3-carboxylate]
224 to 226 °C	Cc1ccc2oc(=O)c(C(=O)Oc3cc(F)ccc3[N+](=O)[O-])cc2c1 [Ib6, 5-fluoro-2-nitrophenyl 6-methyl-2-oxo-2H-1-benzopyran-3-carboxylate]
188 to 190 °C	Cc1ccc2oc(=O)c(C(=O)Oc3cccc4cnccc34)cc2c1 [Ib8, 5-isoquinolyl 6-methyl-2-oxo-2H-1-benzopyran-3-carboxylate]

melting point	SMILES
185 to 186 °C	O=C(OC1CCCCC1)c1cc2cc(CCl)ccc2oc1=O [Ic′1, cyclohexyl 6-chloromethyl-2-oxo-2H-1-benzopyran-3-carboxylate]
171 to 174 °C	O=C(OC1CCCCCC1)c1cc2cc(CCl)ccc2oc1=O [Ic′2, cycloheptyl 6-chloromethyl-2-oxo-2H-1-benzopyran-3-carboxylate]
169 to 170 °C	O=C(OC1CCCCCCC1)c1cc2cc(CCl)ccc2oc1=O [Ic′3, cyclooctyl 6-chloromethyl-2-oxo-2H-1-benzopyran-3-carboxylate]
164 to 167 °C	O=C(OC1CCCCCCCCCCC1)c1cc2cc(CCl)ccc2oc1=O [Ic′4, cyclododecyl 6-chloromethyl-2-oxo-2H-1-benzopyran-3-carboxylate]
211 °C (dec.)	Cc1cncc(OC(=O)c2cc3cc(CCl)ccc3oc2=O)c1 [Ic′″2, 5-methyl-3-pyridyl 6-chloromethyl-2-oxo-2H-1-benzopyran-3-carboxylate]
205 to 208 °C	Cc1ccc(OC(=O)c2cc3cc(CCl)ccc3oc2=O)cn1 [Ic′″3, 6-methyl-3-pyridyl 6-chloromethyl-2-oxo-2H-1-benzopyran-3-carboxylate]
198 to 200 °C	O=C(Oc1cccnc1Cl)c1cc2cc(CCl)ccc2oc1=O [Ic′″4, 2-chloro-3-pyridyl 6-chloromethyl-2-oxo-2H-1-benzopyran-3-carboxylate]
197 to 199 °C	O=C(Oc1cccnc1Br)c1cc2cc(CCl)ccc2oc1=O [Ic′″6, 2-bromo-3-pyridyl 6-chloromethyl-2-oxo-2H-1-benzopyran-3-carboxylate]
190 to 193 °C	O=C(Oc1cccnc1[N+](=O)[O-])c1cc2cc(CCl)ccc2oc1=O [Ic′″7, 2-nitro-3-pyridyl 6-chloromethyl-2-oxo-2H-1-benzopyran-3-carboxylate]
203 to 208 °C	Cc1ccc(OC(=O)c2cc3cc(CCl)ccc3oc2=O)c([N+](=O)[O-])n1 [Ic′″8, 6-methyl-2-nitro-3-pyridyl 6-chloromethyl-2-oxo-2H-1-benzopyran-3-carboxylate]
203 to 205 °C	O=C(Oc1cc(F)ccc1Br)c1cc2cc(CCl)ccc2oc1=O [Ic″9, 2-bromo-5-fluorophenyl 6-chloromethyl-2-oxo-2H-1-benzopyran-3-carboxylate]
205 to 208 °C	O=C(Oc1cc(F)ccc1[N+](=O)[O-])c1cc2cc(CCl)ccc2oc1=O [Ic″10, 5-fluoro-2-nitrophenyl 6-chloromethyl-2-oxo-2H-1-benzopyran-3-carboxylate]
127 °C (dec.)	O=C(Oc1cccc2cccnc12)c1cc2cc(CCl)ccc2oc1=O [Ic″″1, 8-quinolyl 6-chloromethyl-2-oxo-2H-1-benzopyran-3-carboxylate]
205 to 208 °C	O=C(Oc1ccc2ncccc2c1)c1cc2cc(CCl)ccc2oc1=O [Ic″″2, 6-quinolyl 6-chloromethyl-2-oxo-2H-1-benzopyran-3-carboxylate]
186 to 187 °C	CCC(=O)OCc1ccc2oc(=O)c(C(=O)Oc3ccccc3)cc2c1 [Id5, phenyl 6-propionyloxymethyl-2-oxo-2H-1-benzopyran-3-carboxylate]

SMILES	melting point
CC(=O)OCc1ccc2oc(=O)c(C(=O)Oc3cc(Cl)cc(Cl)c3)cc2c1 [Id13, 3,5-dichlorophenyl 6-acetoxymethyl-2-oxo-2H-1-benzopyran-3-carboxylate]	146 to 150 °C
CC(=O)OCc1ccc2oc(=O)c(C(=O)Oc3cc(F)ccc3Br)cc2c1 [Id14, 2-bromo-5-fluorophenyl 6-acetoxymethyl-2-oxo-2H-1-benzopyran-3-carboxylate]	148 to 150 °C
CC(=O)OCc1ccc2oc(=O)c(C(=O)Oc3cc(F)ccc3[N+](=O)[O-])cc2c1 [Id15, 5-fluoro-2-nitrophenyl 6-acetoxymethyl-2-oxo-2H-1-benzopyran-3-carboxylate]	157 to 161 °C
